Measured values published in ChEMBL document CHEMBL5465560, “Selectivity Literature for EUbOPEN Chemogenomic Library” (2024).

Key:
[1] = molecular target: AP2-associated protein kinase 1 (Homo sapiens, UniProt Q2M2I8); experiment: Selectivity interaction (Kinase panel (DSF assay)) EUB0001558a AAK1
[2] = molecular target: T1, Ephrin type-A receptor 1 (Homo sapiens) (UniProt P21709); experiment: Selectivity interaction (KinomeScan (DiscoverX)) EUB0000229b EPHA1; conditions: at 10 µM
T1 sequence (whole entry): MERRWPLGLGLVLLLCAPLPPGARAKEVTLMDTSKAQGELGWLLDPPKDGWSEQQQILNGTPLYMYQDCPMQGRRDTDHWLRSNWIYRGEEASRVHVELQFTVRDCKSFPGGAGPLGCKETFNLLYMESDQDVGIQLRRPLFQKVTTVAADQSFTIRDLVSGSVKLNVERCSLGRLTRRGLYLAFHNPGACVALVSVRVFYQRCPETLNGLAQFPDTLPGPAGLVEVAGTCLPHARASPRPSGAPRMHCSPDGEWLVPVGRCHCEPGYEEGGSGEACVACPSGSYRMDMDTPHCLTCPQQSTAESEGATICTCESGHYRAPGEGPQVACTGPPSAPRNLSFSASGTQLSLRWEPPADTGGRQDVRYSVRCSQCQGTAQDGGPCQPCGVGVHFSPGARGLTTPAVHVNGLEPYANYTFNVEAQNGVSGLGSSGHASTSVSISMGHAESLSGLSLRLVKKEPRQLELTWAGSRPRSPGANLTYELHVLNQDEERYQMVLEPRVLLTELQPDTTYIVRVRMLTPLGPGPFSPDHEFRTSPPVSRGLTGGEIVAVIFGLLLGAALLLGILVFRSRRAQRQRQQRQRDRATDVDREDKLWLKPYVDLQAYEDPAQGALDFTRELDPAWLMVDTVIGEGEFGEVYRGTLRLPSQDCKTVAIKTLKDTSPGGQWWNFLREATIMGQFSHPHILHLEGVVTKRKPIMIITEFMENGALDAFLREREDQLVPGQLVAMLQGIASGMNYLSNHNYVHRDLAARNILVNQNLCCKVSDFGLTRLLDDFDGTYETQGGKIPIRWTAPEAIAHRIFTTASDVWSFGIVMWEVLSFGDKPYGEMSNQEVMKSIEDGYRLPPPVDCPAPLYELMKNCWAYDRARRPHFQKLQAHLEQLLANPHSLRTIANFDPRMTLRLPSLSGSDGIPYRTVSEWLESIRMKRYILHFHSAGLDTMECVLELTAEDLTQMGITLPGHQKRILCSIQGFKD

[3] = molecular target: Platelet-derived growth factor receptor beta (Homo sapiens, UniProt P09619); experiment: Selectivity interaction (KinomeScan (DiscoverX)) EUB0000092b PDGFRB; conditions: at 10 µM
[4] = molecular target: Serine/threonine-protein kinase Nek6 (Homo sapiens) (UniProt Q9HC98); experiment: Selectivity interaction (ProQinase) EUB0000171b NEK6
[5] = molecular target: Serine/threonine-protein kinase N2 (Homo sapiens, UniProt Q16513); experiment: Selectivity interaction (KinomeScan (DiscoverX)) EUB0001079a PKN2; conditions: at 1 µM
[6] = system: Tyrosine-protein kinase ABL1 (Homo sapiens), P00519 [T315I]; experiment: Selectivity interaction (KinomeScan (DiscoverX)) EUB0001079a ABL1; conditions: at 1 µM
[7] = molecular target: Phosphatidylinositol 4,5-bisphosphate 3-kinase catalytic subunit beta isoform (Homo sapiens) (UniProt P42338); experiment: Selectivity interaction (Kinase panel (KiNativ target engagement assay in Jurkat cells)) EUB0001635a PIK3CB; assay type: cell-based; conditions: Selectivity number of off-targets 0.0, Selectivity number of targets 233.0, Source Knowledge https://www.sciencedirect.com/science/article/pii/S2451945619300674?via%3Dihub, at 1 µM
[8] = molecular target: RAC-beta serine/threonine-protein kinase (Homo sapiens) (UniProt P31751); conditions: at 10 µM
[9] = molecular target: Protein-tyrosine kinase 6 (Homo sapiens, UniProt Q13882); conditions: at 10 µM
[10] = system: Epidermal growth factor receptor (Homo sapiens), P00533 [L858R,T790M]; conditions: at 10 µM
[11] = molecular target: Tyrosine-protein kinase receptor UFO (Homo sapiens) (UniProt P30530); experiment: Selectivity interaction (Kinase panel (Z-LYTE Assay)) EUB0001632a AXL; conditions: at 10 µM
[12] = molecular target: Ribosomal protein S6 kinase beta-1 (Homo sapiens, UniProt P23443); experiment: Selectivity interaction (Kinase panel (Z-LYTE Assay)) EUB0001632a RPS6KB1; conditions: at 10 µM
[13] = molecular target: Transcription intermediary factor 1-beta (Homo sapiens) (UniProt Q13263); experiment: Selectivity interaction (Bromodomain panel (DSF asssay)) EUB0000270b TRIM28
[14] = molecular target: eIF-2-alpha kinase GCN2 (Homo sapiens) (UniProt Q9P2K8); experiment: Selectivity interaction (ActivX KiNativ screen (kinase selectivity in THP-1 cell lysates)) EUB0000639a EIF2AK4; assay type: subcellular; conditions: lysate, at 5 µM
[15] = molecular target: Glutamate receptor ionotropic, NMDA 1 (Homo sapiens) (UniProt Q05586); experiment: Selectivity interaction (Panel of kinases, GPCRs, ion channels and transporters (enzymatic assay)) EUB0000223bCl GRIN1
[16] = molecular target: MAP kinase-interacting serine/threonine-protein kinase 1 (Homo sapiens) (UniProt Q9BUB5); experiment: Selectivity interaction (KinomeScan (DiscoverX)) EUB0000607a MKNK1; conditions: at 10 µM
[17] = molecular target: Mitogen-activated protein kinase kinase kinase kinase 5 (Homo sapiens) (UniProt Q9Y4K4); experiment: Selectivity interaction (KinomeScan (DiscoverX)) EUB0000607a MAP4K5; conditions: at 10 µM
[18] = system: Tyrosine-protein kinase ABL1 (Homo sapiens), P00519 [Q252H]; experiment: Selectivity interaction (KinomeScan (DiscoverX)) EUB0000607a ABL1; conditions: at 10 µM
[19] = molecular target: Serine/threonine-protein kinase Nek6 (Homo sapiens) (UniProt Q9HC98); experiment: Selectivity interaction (KinomeScan (DiscoverX)) EUB0000045b NEK6
[20] = molecular target: Fibroblast growth factor receptor 4 (Homo sapiens, UniProt P22455); experiment: Selectivity interaction (Ambit KINOMEscan and KiNATiv profiling in Jurkat cells) EUB0000090b FGFR4; assay type: cell-based; conditions: at 1 µM
[21] = molecular target: Death-associated protein kinase 2 (Homo sapiens) (UniProt Q9UIK4); experiment: Selectivity interaction (Ambit KINOMEscan and KiNATiv profiling in Jurkat cells) EUB0000090b DAPK2; assay type: cell-based; conditions: at 1 µM

Chain of Serine/threonine-protein kinase Nek6 (Homo sapiens) (Q9HC98 whole entry): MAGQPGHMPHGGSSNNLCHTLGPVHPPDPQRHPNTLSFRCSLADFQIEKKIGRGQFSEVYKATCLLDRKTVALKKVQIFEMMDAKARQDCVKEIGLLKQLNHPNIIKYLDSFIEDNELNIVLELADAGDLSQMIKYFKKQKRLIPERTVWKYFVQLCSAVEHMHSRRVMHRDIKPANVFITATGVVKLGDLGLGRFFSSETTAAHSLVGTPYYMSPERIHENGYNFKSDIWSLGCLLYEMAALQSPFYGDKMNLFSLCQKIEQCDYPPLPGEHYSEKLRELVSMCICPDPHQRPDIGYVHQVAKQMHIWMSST
Chain of MAP kinase-interacting serine/threonine-protein kinase 1 (Homo sapiens) (Q9BUB5 whole entry, looked up): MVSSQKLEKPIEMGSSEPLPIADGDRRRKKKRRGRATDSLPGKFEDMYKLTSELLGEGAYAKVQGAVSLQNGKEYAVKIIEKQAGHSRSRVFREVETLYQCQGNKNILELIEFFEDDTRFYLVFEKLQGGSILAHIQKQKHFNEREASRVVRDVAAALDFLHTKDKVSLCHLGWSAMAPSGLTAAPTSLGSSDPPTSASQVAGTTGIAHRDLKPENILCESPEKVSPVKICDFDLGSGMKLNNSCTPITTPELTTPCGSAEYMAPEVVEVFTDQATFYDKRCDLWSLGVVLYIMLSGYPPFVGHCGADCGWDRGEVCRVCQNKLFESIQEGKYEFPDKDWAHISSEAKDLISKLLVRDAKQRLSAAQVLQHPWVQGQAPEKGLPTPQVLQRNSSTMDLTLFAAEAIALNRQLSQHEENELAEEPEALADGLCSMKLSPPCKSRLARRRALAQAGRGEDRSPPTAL
Chain of Transcription intermediary factor 1-beta (Homo sapiens) (Q13263 whole entry): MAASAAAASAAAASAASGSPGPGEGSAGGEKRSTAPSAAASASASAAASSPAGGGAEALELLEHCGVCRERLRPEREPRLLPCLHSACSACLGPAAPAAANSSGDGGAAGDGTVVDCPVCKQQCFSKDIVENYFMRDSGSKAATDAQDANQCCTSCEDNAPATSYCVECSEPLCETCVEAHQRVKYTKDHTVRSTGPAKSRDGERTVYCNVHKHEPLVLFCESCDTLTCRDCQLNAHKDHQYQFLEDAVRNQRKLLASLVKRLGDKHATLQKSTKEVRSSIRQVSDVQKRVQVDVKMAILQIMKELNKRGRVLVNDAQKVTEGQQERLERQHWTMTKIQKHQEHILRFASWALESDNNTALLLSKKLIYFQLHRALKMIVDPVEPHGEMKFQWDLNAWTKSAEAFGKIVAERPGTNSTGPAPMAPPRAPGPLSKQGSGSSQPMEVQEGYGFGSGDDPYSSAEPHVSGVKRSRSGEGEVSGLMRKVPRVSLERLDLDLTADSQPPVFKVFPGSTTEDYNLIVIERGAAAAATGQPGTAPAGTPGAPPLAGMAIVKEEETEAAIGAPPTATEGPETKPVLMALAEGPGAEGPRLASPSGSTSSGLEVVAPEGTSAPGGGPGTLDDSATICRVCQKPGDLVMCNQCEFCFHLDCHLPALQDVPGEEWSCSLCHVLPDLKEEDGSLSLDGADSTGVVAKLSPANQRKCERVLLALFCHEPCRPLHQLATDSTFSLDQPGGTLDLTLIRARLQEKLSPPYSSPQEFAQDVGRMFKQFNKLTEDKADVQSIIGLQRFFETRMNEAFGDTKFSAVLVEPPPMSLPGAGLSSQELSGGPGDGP
Chain of Platelet-derived growth factor receptor beta (P09619 whole entry): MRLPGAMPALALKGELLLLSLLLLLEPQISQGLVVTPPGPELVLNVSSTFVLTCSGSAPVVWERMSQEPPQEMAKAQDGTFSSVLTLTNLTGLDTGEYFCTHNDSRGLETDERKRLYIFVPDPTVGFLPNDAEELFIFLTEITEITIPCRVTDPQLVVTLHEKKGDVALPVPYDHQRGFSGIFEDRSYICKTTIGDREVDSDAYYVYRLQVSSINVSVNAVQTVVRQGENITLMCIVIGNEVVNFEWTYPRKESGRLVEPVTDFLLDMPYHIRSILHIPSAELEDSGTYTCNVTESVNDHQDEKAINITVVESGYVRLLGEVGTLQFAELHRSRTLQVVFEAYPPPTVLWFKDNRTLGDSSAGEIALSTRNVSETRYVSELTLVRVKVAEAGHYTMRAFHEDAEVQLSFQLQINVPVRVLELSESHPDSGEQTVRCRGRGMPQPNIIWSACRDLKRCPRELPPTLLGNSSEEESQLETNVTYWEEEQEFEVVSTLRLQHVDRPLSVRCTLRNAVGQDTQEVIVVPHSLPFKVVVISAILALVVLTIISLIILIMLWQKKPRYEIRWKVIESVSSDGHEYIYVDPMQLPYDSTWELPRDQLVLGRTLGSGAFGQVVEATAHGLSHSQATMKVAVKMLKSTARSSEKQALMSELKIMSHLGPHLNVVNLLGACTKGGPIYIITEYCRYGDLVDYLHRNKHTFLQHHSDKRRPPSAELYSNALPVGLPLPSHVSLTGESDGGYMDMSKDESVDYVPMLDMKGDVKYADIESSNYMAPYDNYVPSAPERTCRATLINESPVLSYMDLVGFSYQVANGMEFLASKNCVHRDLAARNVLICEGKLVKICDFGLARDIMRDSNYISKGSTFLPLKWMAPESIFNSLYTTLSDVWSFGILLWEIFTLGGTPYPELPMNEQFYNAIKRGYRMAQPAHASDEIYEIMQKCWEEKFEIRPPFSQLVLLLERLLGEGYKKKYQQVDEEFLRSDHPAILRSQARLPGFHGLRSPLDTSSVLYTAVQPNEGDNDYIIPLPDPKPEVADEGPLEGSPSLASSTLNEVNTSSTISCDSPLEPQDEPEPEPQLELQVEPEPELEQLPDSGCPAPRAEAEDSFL
Chain of Phosphatidylinositol 4,5-bisphosphate 3-kinase catalytic subunit beta isoform (Homo sapiens) (P42338 whole entry, looked up, canonical isoform): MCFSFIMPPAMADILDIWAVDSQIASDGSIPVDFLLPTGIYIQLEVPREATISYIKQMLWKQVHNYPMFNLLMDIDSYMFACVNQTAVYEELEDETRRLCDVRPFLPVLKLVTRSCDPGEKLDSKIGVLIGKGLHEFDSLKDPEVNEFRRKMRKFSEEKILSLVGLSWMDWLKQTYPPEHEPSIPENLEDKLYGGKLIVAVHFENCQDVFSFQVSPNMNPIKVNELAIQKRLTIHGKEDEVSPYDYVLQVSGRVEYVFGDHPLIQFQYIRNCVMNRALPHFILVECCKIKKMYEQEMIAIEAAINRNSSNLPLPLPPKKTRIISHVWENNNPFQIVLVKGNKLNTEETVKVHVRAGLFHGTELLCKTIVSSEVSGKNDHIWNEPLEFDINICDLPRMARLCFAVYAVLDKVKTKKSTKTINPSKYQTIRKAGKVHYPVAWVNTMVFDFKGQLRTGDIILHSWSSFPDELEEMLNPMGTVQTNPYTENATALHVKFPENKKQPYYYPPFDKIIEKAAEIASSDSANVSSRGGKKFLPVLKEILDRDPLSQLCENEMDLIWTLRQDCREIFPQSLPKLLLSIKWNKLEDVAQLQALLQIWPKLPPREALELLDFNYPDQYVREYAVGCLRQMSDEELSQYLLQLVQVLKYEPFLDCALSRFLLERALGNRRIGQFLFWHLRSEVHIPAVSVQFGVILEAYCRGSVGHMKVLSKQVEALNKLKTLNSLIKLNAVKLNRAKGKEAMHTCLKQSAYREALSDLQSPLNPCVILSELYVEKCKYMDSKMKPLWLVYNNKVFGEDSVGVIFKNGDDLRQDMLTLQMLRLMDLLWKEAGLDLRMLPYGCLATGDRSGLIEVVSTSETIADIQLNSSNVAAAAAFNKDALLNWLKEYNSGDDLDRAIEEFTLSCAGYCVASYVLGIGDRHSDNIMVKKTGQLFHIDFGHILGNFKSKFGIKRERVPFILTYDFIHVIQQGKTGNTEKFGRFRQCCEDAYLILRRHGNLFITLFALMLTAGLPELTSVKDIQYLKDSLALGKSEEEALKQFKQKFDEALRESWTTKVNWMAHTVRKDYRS
Chain of Protein-tyrosine kinase 6 (Q13882 whole entry, looked up): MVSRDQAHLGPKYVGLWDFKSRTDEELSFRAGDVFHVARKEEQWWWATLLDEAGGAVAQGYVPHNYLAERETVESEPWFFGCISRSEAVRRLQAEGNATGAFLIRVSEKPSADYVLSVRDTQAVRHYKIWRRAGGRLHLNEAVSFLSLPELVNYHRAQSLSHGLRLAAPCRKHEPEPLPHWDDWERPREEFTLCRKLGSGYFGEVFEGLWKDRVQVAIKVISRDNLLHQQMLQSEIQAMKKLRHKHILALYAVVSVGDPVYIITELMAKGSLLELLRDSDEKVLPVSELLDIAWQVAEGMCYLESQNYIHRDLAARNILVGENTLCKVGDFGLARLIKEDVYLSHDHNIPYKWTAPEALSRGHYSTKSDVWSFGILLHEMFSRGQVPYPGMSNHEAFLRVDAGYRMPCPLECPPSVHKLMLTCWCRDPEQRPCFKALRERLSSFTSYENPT
Chain of RAC-beta serine/threonine-protein kinase (Homo sapiens) (P31751 whole entry): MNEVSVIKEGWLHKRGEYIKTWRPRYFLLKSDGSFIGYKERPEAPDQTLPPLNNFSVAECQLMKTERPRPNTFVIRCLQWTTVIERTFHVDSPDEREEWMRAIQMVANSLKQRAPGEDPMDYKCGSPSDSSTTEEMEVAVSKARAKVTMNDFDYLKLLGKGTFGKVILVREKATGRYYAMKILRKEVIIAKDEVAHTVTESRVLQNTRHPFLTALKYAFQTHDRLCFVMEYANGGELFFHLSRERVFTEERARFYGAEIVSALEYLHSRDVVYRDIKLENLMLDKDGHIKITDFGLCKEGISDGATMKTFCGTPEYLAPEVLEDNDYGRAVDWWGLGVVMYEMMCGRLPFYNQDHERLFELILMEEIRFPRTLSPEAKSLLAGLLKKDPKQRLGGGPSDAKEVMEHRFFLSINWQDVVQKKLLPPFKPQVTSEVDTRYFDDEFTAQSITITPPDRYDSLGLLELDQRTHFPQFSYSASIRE

CC(C)(O)[C@H](F)CN1Cc2cc(NC(=O)c3cnn4cccnc34)c(N3CCOCC3)cc2C1=O
dTM [1]: 0.2 K

COc1cc(N(C)c2ccnc3ccc(C(F)(F)F)cc23)cc(OC)c1OC
% binding [2]: 90%

CCC(=O)N1CCN(c2ccc(-n3c(=O)ccc4cnc5ccc(-c6cnc7ccccc7c6)cc5c43)cc2C(F)(F)F)CC1
% of control [3]: 24%

C=CC(=O)Nc1cccc(C(=O)Nc2ccc(Nc3cc(-c4[nH]c(SC)nc4C)ccn3)cc2)c1
% of control ([4]; at 1 µM): 91%
% of control ([4]; at 5 µM): 92%

Nc1cnc(N2CCc3cc(S(=O)(=O)Nc4c(F)cc(Cl)cc4F)cc(N4CCCC4=O)c32)nc1 [TP-020n]
% of control [5]: 100%
% of control [6]: 98%

C=CC(=O)Nc1ccc(C(=O)Nc2[nH]nc3c2CN(C(=O)N[C@H](CN(C)C)c2ccccc2)C3(C)C)cc1
% of engagement [7]: -21.2%

Cc1cc([C@@H](C)Nc2ccccc2C(=O)O)c2nc(N3CCOCC3)cc(=O)n2c1 [AZD-6482]
% of control [8]: 86%
% of control [9]: 75%
% of control [10]: 99%

Cn1cc(-n2cnc3c(NCc4nc5cc(Cl)c(Cl)cc5[nH]4)nc(N4CCOCC4)nc32)cn1
% of control [11]: 2.06%
% of control [12]: 2.46%

Cc1cc(CN)cc(C)c1-c1ncn(C)c1-c1cncn1C
dTM [13]: -1.65 K

CC[C@@H]1[C@H](F)C(=O)N[C@@H]1COc1nccc2cc(C(N)=O)c(OC)cc12 [ZIMLOVISERTIB]
% of inhibition [14]: 19.4%

COc1cc(C(=O)N2CC[C@@H](O)[C@@H](N)C2)cc2nc(-c3cc4ccccc4n3CC3CC3)n(C)c12
pXC50 [15]: 4.8 M

CNC(=O)Nc1ccc(-c2nc(N3CC4CCC(C3)O4)c3cnn(C4CCC5(CC4)OCCO5)c3n2)cc1
% of control [16]: 100%
% of control [17]: 83%
% of control [18]: 100%

C=CC(=O)Nc1cc(-n2c(=O)ccc3cnc4ccc(-c5ccc(NS(C)(=O)=O)cc5)cc4c32)ccc1C
% of control ([19]; at 1 µM): 100%
% of control ([19]; at 10 µM): 74%

CN(C)C/C=C/C(=O)Nc1ccc(C(=O)N2CCCC(Nc3ncc(Cl)c(-c4c[nH]c5ccccc45)n3)C2)cc1 (stereo not drawn)
% of control [20]: 86%
% of control [21]: 98%
